{"source": "paper PMC9234961", "about": "(Journal of Medicinal Chemistry, 2022)", "key": {"kinases (468) [1]": {"target": "kinases (468) (Homo sapiens, UniProt O43293)", "sequence (O43293 whole entry)": "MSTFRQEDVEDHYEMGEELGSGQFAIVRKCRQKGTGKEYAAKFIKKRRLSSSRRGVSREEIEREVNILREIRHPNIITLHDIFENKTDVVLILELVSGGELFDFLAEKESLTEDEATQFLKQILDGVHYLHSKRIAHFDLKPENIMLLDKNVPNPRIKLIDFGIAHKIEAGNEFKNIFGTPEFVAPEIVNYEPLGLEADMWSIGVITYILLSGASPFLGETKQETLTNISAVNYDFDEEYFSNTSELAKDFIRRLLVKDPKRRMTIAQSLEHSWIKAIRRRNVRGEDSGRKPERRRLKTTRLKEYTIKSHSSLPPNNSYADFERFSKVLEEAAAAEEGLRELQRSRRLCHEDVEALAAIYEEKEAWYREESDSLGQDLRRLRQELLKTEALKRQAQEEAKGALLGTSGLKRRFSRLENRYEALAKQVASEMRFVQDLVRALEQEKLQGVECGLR", "conditions": "DAPK3; 1000 nM"}, "kinases (468) [2]": {"target": "kinases (468) (Homo sapiens, UniProt O75460)", "conditions": "ERN1; 1000 nM"}, "kinases (468) [3]": {"target": "kinases (468) (Homo sapiens, UniProt P00519, F317I)", "sequence (P00519 whole entry F317I)": "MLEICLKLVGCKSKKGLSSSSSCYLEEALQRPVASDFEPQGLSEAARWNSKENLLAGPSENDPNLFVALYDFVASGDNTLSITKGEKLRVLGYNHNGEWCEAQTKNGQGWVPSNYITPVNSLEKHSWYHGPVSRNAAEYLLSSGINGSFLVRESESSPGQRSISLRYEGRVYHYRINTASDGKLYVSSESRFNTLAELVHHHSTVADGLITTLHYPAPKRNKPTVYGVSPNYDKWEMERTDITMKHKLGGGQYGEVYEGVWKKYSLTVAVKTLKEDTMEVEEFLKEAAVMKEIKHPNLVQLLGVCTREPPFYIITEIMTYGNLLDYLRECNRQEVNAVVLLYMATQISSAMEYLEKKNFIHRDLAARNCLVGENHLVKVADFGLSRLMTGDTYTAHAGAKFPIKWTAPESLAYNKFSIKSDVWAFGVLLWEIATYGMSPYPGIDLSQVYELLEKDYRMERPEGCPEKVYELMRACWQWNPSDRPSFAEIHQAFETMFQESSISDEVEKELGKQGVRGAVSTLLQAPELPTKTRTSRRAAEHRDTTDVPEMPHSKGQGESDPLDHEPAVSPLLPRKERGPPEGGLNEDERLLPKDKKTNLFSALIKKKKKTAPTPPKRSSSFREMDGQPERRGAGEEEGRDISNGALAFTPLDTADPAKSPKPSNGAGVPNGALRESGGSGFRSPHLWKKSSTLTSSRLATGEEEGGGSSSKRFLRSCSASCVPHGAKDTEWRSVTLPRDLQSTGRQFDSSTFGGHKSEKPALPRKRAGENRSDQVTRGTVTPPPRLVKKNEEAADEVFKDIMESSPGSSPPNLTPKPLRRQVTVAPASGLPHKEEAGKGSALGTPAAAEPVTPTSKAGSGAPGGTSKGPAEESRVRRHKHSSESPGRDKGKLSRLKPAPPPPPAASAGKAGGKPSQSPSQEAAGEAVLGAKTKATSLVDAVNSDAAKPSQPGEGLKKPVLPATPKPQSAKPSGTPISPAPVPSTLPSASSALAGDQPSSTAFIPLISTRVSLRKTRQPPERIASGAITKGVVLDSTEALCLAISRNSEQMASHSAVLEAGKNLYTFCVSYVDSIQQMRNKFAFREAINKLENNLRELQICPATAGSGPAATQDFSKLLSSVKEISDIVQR", "conditions": "1000 nM"}, "kinases (468) [4]": {"target": "kinases (468) (Homo sapiens, UniProt P00533, L858R/T790M)", "conditions": "EGFR(L858R,T790M); 1000 nM"}, "kinases (468) [5]": {"target": "kinases (468) (Homo sapiens, UniProt P07949)", "conditions": "RET; 1000 nM"}, "kinases (468) [6]": {"target": "kinases (468) (Homo sapiens, UniProt P09619)", "conditions": "PDGFRB; 1000 nM"}, "kinases (468) [7]": {"target": "kinases (468) (Homo sapiens, UniProt P16234)", "sequence (P16234 24-1089)": "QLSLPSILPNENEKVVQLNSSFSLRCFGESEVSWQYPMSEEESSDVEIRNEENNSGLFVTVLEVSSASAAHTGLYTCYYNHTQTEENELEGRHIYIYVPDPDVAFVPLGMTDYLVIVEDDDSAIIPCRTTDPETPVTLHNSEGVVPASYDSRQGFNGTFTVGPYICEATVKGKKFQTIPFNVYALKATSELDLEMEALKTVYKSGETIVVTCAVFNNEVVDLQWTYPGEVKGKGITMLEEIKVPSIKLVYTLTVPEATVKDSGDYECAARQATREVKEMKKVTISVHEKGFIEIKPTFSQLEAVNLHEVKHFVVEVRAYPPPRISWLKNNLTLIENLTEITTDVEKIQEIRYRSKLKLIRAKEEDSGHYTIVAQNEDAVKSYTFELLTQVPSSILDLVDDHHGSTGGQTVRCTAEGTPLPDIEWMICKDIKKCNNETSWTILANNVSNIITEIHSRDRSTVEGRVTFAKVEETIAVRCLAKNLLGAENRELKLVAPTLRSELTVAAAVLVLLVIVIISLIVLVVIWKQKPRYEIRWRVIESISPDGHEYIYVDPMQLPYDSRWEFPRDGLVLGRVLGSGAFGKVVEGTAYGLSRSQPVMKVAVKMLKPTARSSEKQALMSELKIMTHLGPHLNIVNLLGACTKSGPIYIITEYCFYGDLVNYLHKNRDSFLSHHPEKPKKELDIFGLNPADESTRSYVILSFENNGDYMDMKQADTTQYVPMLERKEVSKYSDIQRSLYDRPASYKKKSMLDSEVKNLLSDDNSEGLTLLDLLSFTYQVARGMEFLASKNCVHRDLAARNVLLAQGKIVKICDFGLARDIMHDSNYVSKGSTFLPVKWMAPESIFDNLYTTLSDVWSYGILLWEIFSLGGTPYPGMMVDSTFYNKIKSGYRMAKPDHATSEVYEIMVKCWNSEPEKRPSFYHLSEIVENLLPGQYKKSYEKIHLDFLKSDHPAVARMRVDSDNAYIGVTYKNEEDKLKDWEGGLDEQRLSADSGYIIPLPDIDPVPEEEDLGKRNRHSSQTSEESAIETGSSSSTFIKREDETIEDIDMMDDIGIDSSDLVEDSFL", "conditions": "PDGFRA; 1000 nM"}, "kinases (468) [8]": {"target": "kinases (468) (Homo sapiens, UniProt P21127)", "conditions": "CDC2L1 (CDK11B); 1000 nM"}, "kinases (468) [9]": {"target": "kinases (468) (Homo sapiens, UniProt P27361)", "conditions": "ERK1 (MAPK3); 1000 nM"}, "kinases (468) [10]": {"target": "kinases (468) (Homo sapiens, UniProt P36888)", "conditions": "1000 nM"}, "kinases (468) [11]": {"target": "kinases (468) (Homo sapiens, UniProt P36888, D835H)", "conditions": "FLT3(D835H); 1000 nM"}, "kinases (468) [12]": {"target": "kinases (468) (Homo sapiens, UniProt P51817)", "conditions": "PRKX; 1000 nM"}, "kinases (468) [13]": {"target": "kinases (468) (Homo sapiens, UniProt P53350)", "conditions": "PLK1; 1000 nM"}, "kinases (468) [14]": {"target": "kinases (468) (Homo sapiens, UniProt P78356)", "sequence (P78356 whole entry)": "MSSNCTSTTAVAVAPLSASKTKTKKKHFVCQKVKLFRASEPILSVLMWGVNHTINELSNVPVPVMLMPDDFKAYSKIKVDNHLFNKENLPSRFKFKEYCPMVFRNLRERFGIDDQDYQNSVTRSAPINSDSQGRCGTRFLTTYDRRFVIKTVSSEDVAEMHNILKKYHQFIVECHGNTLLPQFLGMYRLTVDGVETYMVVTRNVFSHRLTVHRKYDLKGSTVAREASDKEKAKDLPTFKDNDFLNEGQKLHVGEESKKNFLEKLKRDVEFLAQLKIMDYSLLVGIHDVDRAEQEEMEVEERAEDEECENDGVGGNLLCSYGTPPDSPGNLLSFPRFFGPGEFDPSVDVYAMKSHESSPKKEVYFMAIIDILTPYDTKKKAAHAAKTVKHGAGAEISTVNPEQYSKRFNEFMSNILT", "conditions": "PIP5K2B (PIP4K2B); 1000 nM"}, "kinases (468) [15]": {"target": "kinases (468) (Homo sapiens, UniProt Q00537)", "conditions": "PCTK2 (CDK17); 1000 nM"}, "kinases (468) [16]": {"target": "kinases (468) (Homo sapiens, UniProt Q15349)", "sequence (Q15349 whole entry)": "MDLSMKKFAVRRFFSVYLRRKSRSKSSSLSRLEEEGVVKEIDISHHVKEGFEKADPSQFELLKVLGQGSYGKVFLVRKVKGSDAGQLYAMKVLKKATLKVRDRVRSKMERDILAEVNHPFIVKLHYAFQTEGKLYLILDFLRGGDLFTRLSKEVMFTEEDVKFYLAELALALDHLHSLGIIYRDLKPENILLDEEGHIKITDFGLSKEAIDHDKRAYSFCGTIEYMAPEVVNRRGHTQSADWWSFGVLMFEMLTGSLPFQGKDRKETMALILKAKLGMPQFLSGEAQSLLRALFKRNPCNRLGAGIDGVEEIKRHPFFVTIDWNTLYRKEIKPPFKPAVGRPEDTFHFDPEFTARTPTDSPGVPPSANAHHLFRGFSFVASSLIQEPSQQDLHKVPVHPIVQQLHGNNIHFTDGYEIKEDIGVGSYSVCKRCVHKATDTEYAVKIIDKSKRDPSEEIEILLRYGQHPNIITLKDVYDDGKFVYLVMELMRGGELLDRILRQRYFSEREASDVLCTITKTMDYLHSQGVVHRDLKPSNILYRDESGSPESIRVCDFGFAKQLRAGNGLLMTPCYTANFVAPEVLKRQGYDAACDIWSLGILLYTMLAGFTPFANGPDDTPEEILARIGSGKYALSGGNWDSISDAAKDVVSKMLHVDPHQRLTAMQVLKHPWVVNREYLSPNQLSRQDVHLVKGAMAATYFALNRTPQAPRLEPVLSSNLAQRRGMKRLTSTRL", "conditions": "compound concentration 1000 nM"}, "kinases (468) [17]": {"target": "kinases (468) (Homo sapiens, UniProt Q16620)", "conditions": "kinase TRKB (Entrez NTRK2); compound concentration 1000 nM"}, "kinases (468) [18]": {"target": "kinases (468) (Homo sapiens, UniProt Q6PHR2)", "conditions": "kinase ULK3 (Entrez ULK3); compound concentration 1000 nM"}, "kinases (468) [19]": {"target": "kinases (468) (Homo sapiens, UniProt Q7KZI7)", "conditions": "MARK2; 1000 nM"}, "kinases (468) [20]": {"target": "kinases (468) (Homo sapiens, UniProt Q8IW41)", "conditions": "MAPKAPK5; 1000 nM"}, "kinases (468) [21]": {"target": "kinases (468) (Homo sapiens, UniProt Q8N568)", "conditions": "DCAMKL2 (DCLK2); 1000 nM"}, "kinases (468) [22]": {"target": "kinases (468) (Homo sapiens, UniProt Q8NEV4)", "conditions": "MYO3A; 1000 nM"}, "kinases (468) [23]": {"target": "kinases (468) (Homo sapiens, UniProt Q92918)", "conditions": "HPK1 (MAP4K1); 1000 nM"}, "kinases (468) [24]": {"target": "kinases (468) (Homo sapiens, UniProt Q96SB4)", "conditions": "kinase SRPK1 (Entrez SRPK1); compound concentration 1000 nM"}, "kinases (468) [25]": {"target": "kinases (468) (Homo sapiens, UniProt Q9BXA7)", "sequence (Q9BXA7 whole entry)": "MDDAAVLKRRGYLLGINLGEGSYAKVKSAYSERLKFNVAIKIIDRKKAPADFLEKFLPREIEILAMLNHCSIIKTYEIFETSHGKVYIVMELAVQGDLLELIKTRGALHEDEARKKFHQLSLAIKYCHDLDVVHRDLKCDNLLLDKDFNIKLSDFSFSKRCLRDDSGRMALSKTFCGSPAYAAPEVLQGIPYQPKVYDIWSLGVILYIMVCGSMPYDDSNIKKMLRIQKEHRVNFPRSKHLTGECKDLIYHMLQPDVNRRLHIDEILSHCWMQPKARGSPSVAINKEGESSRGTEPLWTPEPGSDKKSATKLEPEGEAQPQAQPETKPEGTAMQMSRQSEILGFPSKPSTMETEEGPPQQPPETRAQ", "conditions": "kinase TSSK1B (Entrez TSSK1B); compound concentration 1000 nM"}, "kinases (468) [26]": {"target": "kinases (468) (Homo sapiens, UniProt Q9C098)", "conditions": "DCAMKL3 (DCLK3); 1000 nM"}, "kinases (468) [27]": {"target": "kinases (468) (Homo sapiens, UniProt Q9H2G2)", "conditions": "kinase SLK (Entrez SLK); compound concentration 1000 nM"}, "kinases (468) [28]": {"target": "kinases (468) (Homo sapiens, UniProt Q9NQU5)", "conditions": "PAK6; 1000 nM"}, "kinases (468) [29]": {"target": "kinases (468) (Homo sapiens, UniProt Q9NY57)", "conditions": "kinase YANK2 (Entrez STK32B); compound concentration 1000 nM"}, "kinases (468) [30]": {"target": "kinases (468) (Homo sapiens, UniProt Q9UK32)", "sequence (Q9UK32 whole entry)": "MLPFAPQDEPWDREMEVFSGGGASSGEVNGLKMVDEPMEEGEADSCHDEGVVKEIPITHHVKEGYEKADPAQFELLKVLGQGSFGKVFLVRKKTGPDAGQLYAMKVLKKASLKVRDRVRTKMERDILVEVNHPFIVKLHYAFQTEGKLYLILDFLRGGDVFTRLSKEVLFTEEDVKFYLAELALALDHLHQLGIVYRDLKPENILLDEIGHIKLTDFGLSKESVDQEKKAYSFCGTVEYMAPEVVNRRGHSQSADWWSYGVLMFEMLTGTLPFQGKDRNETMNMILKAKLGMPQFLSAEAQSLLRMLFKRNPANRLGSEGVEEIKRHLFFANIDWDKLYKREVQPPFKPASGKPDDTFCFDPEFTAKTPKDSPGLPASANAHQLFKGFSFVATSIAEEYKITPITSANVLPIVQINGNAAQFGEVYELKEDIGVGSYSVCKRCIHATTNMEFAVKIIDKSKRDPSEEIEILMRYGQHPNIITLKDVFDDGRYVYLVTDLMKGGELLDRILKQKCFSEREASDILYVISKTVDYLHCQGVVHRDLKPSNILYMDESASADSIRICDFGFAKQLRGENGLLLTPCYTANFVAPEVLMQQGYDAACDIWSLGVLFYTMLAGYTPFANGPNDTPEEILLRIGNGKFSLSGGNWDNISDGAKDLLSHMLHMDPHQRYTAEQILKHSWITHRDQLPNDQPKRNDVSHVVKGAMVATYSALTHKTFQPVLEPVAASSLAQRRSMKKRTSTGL", "conditions": "compound concentration 1000 nM"}, "kinases (468) [31]": {"target": "kinases (468) (Homo sapiens, UniProt Q9UM73)", "conditions": "ALK; 1000 nM"}, "kinases (468) [32]": {"target": "kinases (468) (Homo sapiens, UniProt Q9Y3S1)", "conditions": "kinase WNK2 (Entrez WNK2); compound concentration 1000 nM"}, "kinases (468) [33]": {"target": "kinases (468) (Plasmodium falciparum, UniProt P62344)", "conditions": "PFCDPK1(P.falciparum) (CDPK1); 1000 nM"}}, "note": "Read-outs that look alike come from different tables or passages of the source."}
{"smiles": "C[C@H]1C[C@@H](O)CN(c2ncc(Cl)c(Nc3ccc4c(c3)c3c(c(=O)n4C)OCC(F)(F)[C@H](C4CC4)N3)n2)C1", "note": "[CCT373566_9A]", "values": [{"measurement": "Percent Control", "setting": "kinases (468) [1]", "value": 100, "unit": "%"}, {"measurement": "Percent Control", "setting": "kinases (468) [2]", "value": 92, "unit": "%"}, {"measurement": "Percent Control", "setting": "kinases (468) [3]; ABL1(F317I)-nonphosphorylated", "value": 95, "unit": "%"}, {"measurement": "Percent Control", "setting": "kinases (468) [3]; ABL1(F317I)-phosphorylated", "value": 90, "unit": "%"}, {"measurement": "Percent Control", "setting": "kinases (468) [4]", "value": 81, "unit": "%"}, {"measurement": "Percent Control", "setting": "kinases (468) [5]", "value": 99, "unit": "%"}, {"measurement": "Percent Control", "setting": "kinases (468) [6]", "value": 98, "unit": "%"}, {"measurement": "Percent Control", "setting": "kinases (468) [7]", "value": 95, "unit": "%"}, {"measurement": "Percent Control", "setting": "kinases (468) [8]", "value": 100, "unit": "%"}, {"measurement": "Percent Control", "setting": "kinases (468) [9]", "value": 98, "unit": "%"}, {"measurement": "Percent Control", "setting": "kinases (468) [10]; FLT3-autoinhibited", "value": 98, "unit": "%"}, {"measurement": "Percent Control", "setting": "kinases (468) [10]; FLT3", "value": 99, "unit": "%"}, {"measurement": "Percent Control", "setting": "kinases (468) [11]", "value": 90, "unit": "%"}, {"measurement": "Percent Control", "setting": "kinases (468) [12]", "value": 100, "unit": "%"}, {"measurement": "Percent Control", "setting": "kinases (468) [13]", "value": 83, "unit": "%"}, {"measurement": "Percent Control", "setting": "kinases (468) [14]", "value": 100, "unit": "%"}, {"measurement": "Percent Control", "setting": "kinases (468) [15]", "value": 95, "unit": "%"}, {"measurement": "Percent Control", "setting": "kinases (468) [16]; kinase RSK3(Kin.Dom.1-N-terminal) (Entrez RPS6KA2)", "value": 100, "unit": "%"}, {"measurement": "Percent Control", "setting": "kinases (468) [16]; kinase RSK3(Kin.Dom.2-C-terminal) (Entrez RPS6KA2)", "value": 83, "unit": "%"}, {"measurement": "Percent Control", "setting": "kinases (468) [17]", "value": 97, "unit": "%"}, {"measurement": "Percent Control", "setting": "kinases (468) [18]", "value": 93, "unit": "%"}, {"measurement": "Percent Control", "setting": "kinases (468) [19]", "value": 93, "unit": "%"}, {"measurement": "Percent Control", "setting": "kinases (468) [20]", "value": 100, "unit": "%"}, {"measurement": "Percent Control", "setting": "kinases (468) [21]", "value": 100, "unit": "%"}, {"measurement": "Percent Control", "setting": "kinases (468) [22]", "value": 100, "unit": "%"}, {"measurement": "Percent Control", "setting": "kinases (468) [23]", "value": 82, "unit": "%"}, {"measurement": "Percent Control", "setting": "kinases (468) [24]", "value": 83, "unit": "%"}, {"measurement": "Percent Control", "setting": "kinases (468) [25]", "value": 100, "unit": "%"}, {"measurement": "Percent Control", "setting": "kinases (468) [26]", "value": 100, "unit": "%"}, {"measurement": "Percent Control", "setting": "kinases (468) [27]", "value": 100, "unit": "%"}, {"measurement": "Percent Control", "setting": "kinases (468) [28]", "value": 93, "unit": "%"}, {"measurement": "Percent Control", "setting": "kinases (468) [29]", "value": 90, "unit": "%"}, {"measurement": "Percent Control", "setting": "kinases (468) [30]; kinase RSK4(Kin.Dom.1-N-terminal) (Entrez RPS6KA6)", "value": 90, "unit": "%"}, {"measurement": "Percent Control", "setting": "kinases (468) [30]; kinase RSK4(Kin.Dom.2-C-terminal) (Entrez RPS6KA6)", "value": 88, "unit": "%"}, {"measurement": "Percent Control", "setting": "kinases (468) [31]", "value": 98, "unit": "%"}, {"measurement": "Percent Control", "setting": "kinases (468) [32]", "value": 100, "unit": "%"}, {"measurement": "Percent Control", "setting": "kinases (468) [33]", "value": 69, "unit": "%"}]}
